Results from article PMC3407089, “Influence of GABAA Receptor α Subunit Isoforms on the Benzodiazepine Binding Site” (PLoS ONE, 2012).

Legend:
[1] = molecular target: α1T206Cβ2γ2 GABAA receptor (Rattus norvegicus, UniProt P18508+P62813, T233C); parameters: method as in PMID 19804380; settings: 10 µM 3-NCS; cited from earlier work
[2] = test system: α3S230Cβ2γ2 GABAA receptor; test: Covalent reaction at the functional level (two-electrode voltage clamp, Xenopus oocytes); type: cell-based; settings: after 10 µM 3-NCS and removal of non-covalently reacted 3-NCS
Procedure: (§1) Capped cRNAs were synthesized (Ambion, Austin, TX, USA) from the linearized plasmids with a cytomegalovirus promotor (pCMVvectors) containing the different subunits, respectively. A poly-A tail of about 400 residues was added to each transcript using yeast poly- A polymerase (United States Biologicals, Cleveland, OH, USA). The concentration of the cRNA was quantified on a formaldehyde gel using Radiant Red stain (Bio-Rad) for visualization of the RNA. Known concentrations of RNA ladder (Invitrogen) were loaded as standard on the same gel. cRNAs were precipitated in ethanol/isoamylalcohol 19∶ 1, the dried pellet dissolved in water and stored at −80°C. cRNA mixtures were prepared from these stock solutions and stored at −80°C. Xenopus laevis oocytes were prepared, injected and defolliculated as described previously, [39]. They were injected with 50 nL of the cRNA solution containing wild type or mutated α1 or α2, α3, α5, α6 and wild type β2 and γ2 subunits at a concentration of 10 nM : 10 nM : 50 nM [40] and then incubated in modified Barth’s solution at +18°C for at least 24 h before the measurements.
(§2) Currents were measured using a modified two-electrode voltage clamp amplifier Oocyte clamp OC-725 (Warner Instruments) in combination with a XY-recorder (90% response time 0.1s) or digitized at 100 Hz using a PowerLab 2/20 (AD Instruments) using the computer programs Chart (ADInstruments GmbH, Spechbach, Germany). Tests with a model oocyte were performed to ensure linearity in the larger current range. The response was linear up to 15 µA.
(§3) Electrophysiological experiments were performed by using the two-electrode voltage clamp method at a holding potential of −80 mV. The perfusion medium contained 90 mM NaCl, 1 mM KCl, 1 mM MgCl2, 1 mM CaCl2, and 5 mM Na-HEPES (pH 7.4) and was applied by gravity flow 6 ml/min. The perfusion medium was applied through a glass capillary with an inner diameter of 1.35 mm, the mouth of which was placed about 0.4 mm from the surface of the oocyte. Allosteric modulation via the benzodiazepine site was measured at a GABA concentration eliciting 2–5% of the maximal GABA current amplitude. GABA was applied for 20 s alone or in combination with allosteric compound. 6 ml of the covalent reacting compound was applied to the oocyte and incubated for 3 min while stopping the flow of the perfusion medium. Modulation of GABA currents was expressed as (I(modulator + GABA)/IGABA –1) * 100%. The perfusion system was cleaned between drug applications by washing with DMSO to avoid contamination.

[3] = test system: wild type GABAA receptors; test: as above; type: cell-based; settings: all wild type receptors
Procedure: as §1, §2, §3

[4] = test system: α3T231Cβ2γ2 GABAA receptor; test: as above; type: cell-based; settings: after 10 µM 3-NCS and removal of non-covalently reacted 3-NCS
Procedure: as §1, §2, §3

[5] = test system: T1, α5T210Cβ2γ2 GABAA receptor; test: as above; type: cell-based; settings: after 10 µM 3-NCS and removal of non-covalently reacted 3-NCS
T1 construct: expressed in transfected cells; host or cells: Xenopus laevis oocytes (cRNA injection)
Procedure: as §1, §2, §3

[6] = test system: α6N204Cβ2γ2 GABAA receptor; test: as above; type: cell-based; settings: after 10 µM 3-NCS and removal of non-covalently reacted 3-NCS
Procedure: as §1, §2, §3

[7] = test system: α5S209Cβ2γ2 GABAA receptor; test: as above; type: cell-based; settings: after 10 µM 3-NCS and removal of non-covalently reacted 3-NCS
Procedure: as §1, §2, §3

[8] = test system: α1S204Cβ2γ2 GABAA receptor; test: as above; type: cell-based; settings: after 10 µM 3-NCS and removal of non-covalently reacted 3-NCS
Procedure: as §1, §2, §3

[9] = test system: α5T208Cβ2γ2 GABAA receptor; test: as above; type: cell-based; settings: after 10 µM 3-NCS and removal of non-covalently reacted 3-NCS
Procedure: as §1, §2, §3

[10] = test system: α6S203Cβ2γ2 GABAA receptor; test: as above; type: cell-based; settings: after 10 µM 3-NCS and removal of non-covalently reacted 3-NCS
Procedure: as §1, §2, §3

[11] = molecular target: T2, α1S205Cβ2γ2 GABAA receptor (Rattus norvegicus, UniProt P18508+P62813, S232C); parameters: method as in PMID 19804380; settings: 10 µM 3-NCS; cited from earlier work
T2 sequence (P62813 28-455 S232C): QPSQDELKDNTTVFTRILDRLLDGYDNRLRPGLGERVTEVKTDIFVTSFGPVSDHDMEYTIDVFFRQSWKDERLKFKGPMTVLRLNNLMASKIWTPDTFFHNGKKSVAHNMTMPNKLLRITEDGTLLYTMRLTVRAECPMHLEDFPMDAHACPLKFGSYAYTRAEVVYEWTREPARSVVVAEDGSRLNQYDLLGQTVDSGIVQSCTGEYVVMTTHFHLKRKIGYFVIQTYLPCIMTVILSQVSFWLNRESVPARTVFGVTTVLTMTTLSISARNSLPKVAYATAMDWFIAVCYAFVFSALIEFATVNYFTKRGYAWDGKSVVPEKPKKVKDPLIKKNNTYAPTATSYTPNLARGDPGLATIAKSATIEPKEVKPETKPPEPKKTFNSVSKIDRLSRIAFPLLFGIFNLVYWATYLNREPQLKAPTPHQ
T2 sequence (P18508 39-466): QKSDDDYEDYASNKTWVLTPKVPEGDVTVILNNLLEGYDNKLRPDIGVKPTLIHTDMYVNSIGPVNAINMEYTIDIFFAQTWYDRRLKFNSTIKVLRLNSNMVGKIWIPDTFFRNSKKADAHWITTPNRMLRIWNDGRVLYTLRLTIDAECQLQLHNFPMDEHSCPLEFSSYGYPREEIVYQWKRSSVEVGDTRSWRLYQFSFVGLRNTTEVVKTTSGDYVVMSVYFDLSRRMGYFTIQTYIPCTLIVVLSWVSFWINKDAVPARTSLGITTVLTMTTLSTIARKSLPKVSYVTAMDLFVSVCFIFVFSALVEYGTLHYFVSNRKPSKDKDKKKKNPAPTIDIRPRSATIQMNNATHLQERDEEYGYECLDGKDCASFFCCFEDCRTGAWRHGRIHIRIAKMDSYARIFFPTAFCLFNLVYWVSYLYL
T2 sequence (P63138 26-474 partner): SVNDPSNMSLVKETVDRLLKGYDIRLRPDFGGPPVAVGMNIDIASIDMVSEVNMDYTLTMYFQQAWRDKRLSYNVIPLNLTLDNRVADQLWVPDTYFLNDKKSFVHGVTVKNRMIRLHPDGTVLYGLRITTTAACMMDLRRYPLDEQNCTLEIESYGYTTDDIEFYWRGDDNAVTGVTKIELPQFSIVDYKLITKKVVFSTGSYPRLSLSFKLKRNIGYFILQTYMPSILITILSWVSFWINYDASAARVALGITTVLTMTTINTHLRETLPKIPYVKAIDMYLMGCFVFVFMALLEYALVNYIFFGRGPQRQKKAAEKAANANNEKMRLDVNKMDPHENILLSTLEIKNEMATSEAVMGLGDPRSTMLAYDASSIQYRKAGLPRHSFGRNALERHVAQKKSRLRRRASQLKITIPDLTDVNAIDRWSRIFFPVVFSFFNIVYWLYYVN

[12] = molecular target: α2S205Cβ2γ2 GABAA receptor (Rattus norvegicus, UniProt P18508+P23576, S233C); test: Covalent reaction of 3-NCS at the binding level (residual radioligand binding, HEK293 membranes)
Sequence of α2S205Cβ2γ2 GABAA receptor (P23576 29-451 S233C): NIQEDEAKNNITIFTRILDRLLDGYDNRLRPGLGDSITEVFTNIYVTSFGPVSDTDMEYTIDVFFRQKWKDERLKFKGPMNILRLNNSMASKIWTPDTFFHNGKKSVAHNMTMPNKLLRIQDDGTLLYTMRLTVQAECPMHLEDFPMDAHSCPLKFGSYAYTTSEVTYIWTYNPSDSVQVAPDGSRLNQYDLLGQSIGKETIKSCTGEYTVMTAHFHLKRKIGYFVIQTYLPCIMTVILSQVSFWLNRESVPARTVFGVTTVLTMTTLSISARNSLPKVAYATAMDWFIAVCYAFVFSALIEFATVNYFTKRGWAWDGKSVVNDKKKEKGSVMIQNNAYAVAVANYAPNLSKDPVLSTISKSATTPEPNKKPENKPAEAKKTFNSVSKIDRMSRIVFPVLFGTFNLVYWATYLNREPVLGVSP
Sequence of α2S205Cβ2γ2 GABAA receptor (P18508 39-466, stated change not applied): as the sequence (P18508 39-466) above
Sequence of α2S205Cβ2γ2 GABAA receptor (P63138 26-474 partner): as the sequence (P63138 26-474 partner) above
Procedure: (§4) cDNAs coding for the αx (x = 1, 2, 3, 6), β2, and γ2S subunits DNA (20 µg : 20 µg : 20 µg) per 9 cm diameter dish were transfected in human embryonic kidney (HEK) 293 cells (American Type of Culture Collection, MD, USA, CRL 1573) using the calcium phosphate precipitation technique. For α5 containing receptors β2 was replaced by β1. […] Culturing of cells and membrane preparation were done as described before.
(§5) As detailed in previous work, [30], [33] this procedure included three steps: incubation of membranes expressing recombinant wild type or mutant receptors with the reactive agent followed by extensive washing of the membranes in order to remove non-reacted compound and a radioactive ligand binding assay to determine residual binding. No covalent reaction would result in 100% residual binding, and 100% covalent reaction would result in 0% residual binding.
(§6) Briefly, the membranes were re-suspended in phosphate buffer (100 mM KCl, 10 mM KH2PO4, 0.1 mM EDTA, pH 7.4) using a Glass/Teflon homogenizer. 0.1–1.0 mg/mL of protein were incubated in a total volume of 360 µL with either 10 µM (determination of degree of covalent reaction) or several concentrations of 3-NCS for 30 min on ice. Membranes were collected with rapid filtration on a round 7 mm diameter glass fiber filter (GF/C; Whatman) that was placed on a round 24 mm diameter glass fiber filter (GF/C; Whatman), both pre-washed with phosphate buffer. The reaction of 3-NCS with the receptor was stopped by washing of the filters six times with 5 mL phosphate buffer, each. The small filters with the deposited membranes were incubated in 0.12 mL phosphate buffer containing 5 nM [^3H]Ro15–1788. After 30 min the 7 mm filter was placed on a 24 mm filter and washed six times with 5 mL phosphate buffer each. Radioactivity was determined by liquid scintillation counting. Non-specific binding was determined in the presence of 100 µM Ro 15–1788. In control experiments, washing efficiency was estimated by placing radioactivity on the small filter. More than 99.95% of the radioactivity was removed (not shown).
(§7) Concentration response curves for 3-NCS were fitted with the equation C(c) = Cmax/(1+(EC50/c)), where c is the concentration of 3-NCS, EC50 the concentration of 3-NCS where half maximal covalent reaction was observed, Cmax is the maximal extent of the covalent reaction and C the measured extent of the covalent reaction.

[13] = molecular target: T2, α1S205Cβ2γ2 GABAA receptor; test: as above; settings: 3-NCS 30 min on ice, washed; residual [^3H]Ro15–1788 binding
Procedure: as §4, §5, §6, §7

Sequence of α1T206Cβ2γ2 GABAA receptor (P62813 28-455 T233C): as the sequence (P62813 28-455 S232C) above, with C205S, T206C counted along it
Sequence of α1T206Cβ2γ2 GABAA receptor (P18508 39-466): as the sequence (P18508 39-466) above
Sequence of α1T206Cβ2γ2 GABAA receptor (P63138 26-474 partner): as the sequence (P63138 26-474 partner) above

SMILES: CN1C(=O)C(N=C=S)N=C(c2ccccc2)c2cc([N+](=O)[O-])ccc21 (centres unmarked) [3-NCS]
- Covalent reaction with 3-NCS (in words) [1]: resulted in covalent reaction
- % allosteric modulation, 3-NCS [2]: 15±11%
- Irreversible change of GABA current amplitude after 3-NCS (in words) [3]: failed to show any changes in the current amplitude
- % allosteric modulation, 3-NCS [4]: 28±16%
- % allosteric modulation, 3-NCS [5]: 10±5%
- % allosteric modulation, 3-NCS [6]: −4±6%
- % allosteric modulation, 3-NCS [7]: 46±17%
- % allosteric modulation, 3-NCS [8]: 4±4%
- % allosteric modulation, 3-NCS [9]: 23±18%
- % allosteric modulation, 3-NCS [10]: 0±2%
- Covalent reaction with 3-NCS (in words) [11]: resulted in covalent reaction
- EC50 ([12]; 3-NCS 30 min on ice, washed, residual [^3H]Ro15–1788 binding): 6.6 ± 5.4 µM
- inhibition at 10 µM ([12]; 0.5 h, 10 µM 3-NCS, mutation homologous to α1S205, n = 3, read-out: Extent of covalent reaction (100% minus % residual binding)): 39%
- EC50 [13]: 0.63 ± 0.18 µM
